From patent publication US6057371A, “Sigma receptor ligands and the use thereof” (Virginia Commonwealth University, priority 1992, dated 2000)

system: sigma receptor; assay: Sigma receptor binding, [^3 H]DTG, brain membranes (both sigma-1 and sigma-2 sites); parameters: species or system guinea pig; details: Examples 5 and 6; [^3 H]DTG

Compound | change in sigma receptor affinity vs. analog
C[C@H](Cc1ccccc1)NCCOc1ccccc1 [Compound 8] | about 7 fold

same assay, conditions: Table 6; [^3 H]DTG

Compound | IC50 [nM]
c1ccc(CCCCCNCc2ccccc2)cc1 [Compound 77, N-(5-phenylpentyl)benzylamine] | 2.07
CCCN(C)CCCCCc1ccccc1 [Compound 112, N-methyl-N-propyl-5-phenylpentylamine] | 2.65
c1ccc(CCCCCNCCCCc2ccccc2)cc1 [Compound 76, N-(5-phenylpentyl)-(4-phenyl)butylamine] | 2.65
c1ccc(CCCCNCCc2ccccc2)cc1 [Compound 71, N-(4-phenylbutyl)phenethylamine] | 5.68
c1ccc(CCCCCN2CCC(Cc3ccccc3)CC2)cc1 [Compound 117, N-(5-phenylpentyl)-4-benzylpiperidine] | 2.11
c1ccc(CCCCN2CCN(Cc3ccccc3)CC2)cc1 [Compound 79, N-(4-phenylbutyl)-N'-benzylpiperazine] | 2.25
CCOc1ccc(CC(C)NCCCc2ccccc2)cc1 (racemic) [Compound 83, N-(3-phenylpropyl)-1-(p-ethoxyphenyl)-2-propylamine] | 7.08

same assay, conditions: Table 7; Phenyl-(CH2)x -NH--(CH2)y -Phenyl; read-out: Ki

Compound | Ki [nM]
c1ccc(CCCCCNCc2ccccc2)cc1 [Compound 77, N-(5-phenylpentyl)benzylamine] | 2
c1ccc(CCCCCNCCCCc2ccccc2)cc1 [Compound 76, N-(5-phenylpentyl)-(4-phenyl)butylamine] | 2.5
c1ccc(CCCCNCCc2ccccc2)cc1 [Compound 71, N-(4-phenylbutyl)phenethylamine] | 5.5

same assay, conditions: running text, Examples 5 and 6; listed as N-methyl-N-propyl-5-phenylpentylamine; read-out: sigma receptor Ki

Compound | Ki [nM]
CCCN(C)CCCCCc1ccccc1 [Compound 112, N-methyl-N-propyl-5-phenylpentylamine] | 2.2

molecular target: PCP receptor; assay: PCP receptor binding, ^3 H-MK-801; parameters: species or system rat; details: Table 4
Method: PCP receptor binding assays against ^3 H-MK-801 were conducted as described by Keana et al., Proc. Natl. Acad. Sci (USA) 86: 5631-5635 (1989); Keana et al., Life Sciences 43: 965-973 (1988). For (+) ^3 H-MK-801 binding, 1 nM of radioligand was incubated with about 100 ug of thawed rat brain membrane protein for 4 hr at room temperature. The assays were carried out in 5 mM Tris/acetate and were stopped by rapid filtration through Whatman GF/B or Schleicher & Schuell no. 32 glass fiber filters (presoaked in 0.05% polyethylenamine).

Compound | IC50 [nM]
C[C@@H](Cc1ccccc1)NCCc1ccccc1 [Compound 27] | > 10000
C[C@@H](N)Cc1ccccc1 [Compound 28] | > 10000
C[C@H](N[C@@H](C)Cc1ccccc1)c1ccccc1 [Compound 26] | > 10000
FC(F)(F)c1cccc(N2CCN(CCCCc3ccccc3)CC2)c1 [Compound 47] | > 10000
C[C@@H](Cc1ccccc1)NCCCc1ccccc1 [Compound 43, N-(3-phenylpropyl)-1-pheny1-2-propylamine] | > 10000
C[C@@H](Cc1ccccc1)NCCCc1ccc2ccccc2c1 [Compound 42] | > 10000
Clc1cccc(N2CCN(CCCc3ccccc3)CC2)c1 [Compound 33] | > 10000
CC(Cc1ccc2ccccc2c1)NCCCc1ccccc1 (racemic) [Compound 17, (±) N-[1-(2'-Naphthyl)-2-propyl]-3-phenylpropylamine] | > 10000
C[C@H](Cc1ccccc1)NCCC(=O)c1ccccc1 [Compound 9] | > 10000
c1ccc(CCCN2CCN(c3ccccc3)CC2)cc1 [Compound 46] | > 10000
c1ccc(CCCN2CCN(c3ccc4ccccc4c3)CC2)cc1 [Compound 50] | > 10000
C[C@H](Cc1ccccc1)NCCOc1ccccc1 [Compound 8] | > 10000

molecular target: T1, sigma-1 binding site (Cavia porcellus, UniProt Q60492); assay: biochemical; parameters: species or system guinea pig; details: not given
T1 construct: Guinea pig whole membrane preparations (P2 microsomal fraction); from tissue; host or cells: guinea pig membranes (P2 microsomal fraction), as described by Weber et al; brain inferred from the sister test b489
Method: [^3 H]DTG was purchased from DuPont/NEN.
The radioactivity on the filters was determined by scintillation spectrometry at an efficiency of about 50% using Cytoscint (ICN) scintillation fluid.

T1 sequence (Q60492 whole entry): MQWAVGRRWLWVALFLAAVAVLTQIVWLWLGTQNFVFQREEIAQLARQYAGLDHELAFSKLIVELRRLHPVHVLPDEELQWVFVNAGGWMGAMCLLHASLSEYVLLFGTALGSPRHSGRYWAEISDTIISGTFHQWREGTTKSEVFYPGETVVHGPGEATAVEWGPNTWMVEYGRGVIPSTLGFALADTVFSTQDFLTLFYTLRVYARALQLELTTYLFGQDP

Compound | IC50 [nM] | IC50 ratio of sigma-1/sigma-2 (sigma-1 selective compounds)
c1ccc(CCCCCNCCCCc2ccccc2)cc1 [Compound 76, N-(5-phenylpentyl)-(4-phenyl)butylamine] | 0.48 | less than 0.1

same assay, conditions: Example 8; read-out: sigma-1 IC50, text

Compound | IC50 [nM]
CCCN(C)CCCCCc1ccccc1 [Compound 112, N-methyl-N-propyl-5-phenylpentylamine] | 0.29

same assay, conditions: SIGMA-1 KI vs. 3H-P[…]

Compound | Ki [nM]
c1ccc(CCCCCNCCCCc2ccccc2)cc1 [Compound 76, N-(5-phenylpentyl)-(4-phenyl)butylamine] | 0.48

same assay, conditions: Table 10; read-out: SIGMA-1 KI vs. 3H-PENTAZOCINE MEAN

Compound | Ki [nM]
c1ccc(CCCCCNCc2ccccc2)cc1 [Compound 77, N-(5-phenylpentyl)benzylamine] | 0.32
c1ccc(CCCCNCCc2ccccc2)cc1 [Compound 71, N-(4-phenylbutyl)phenethylamine] | 2.6
c1ccc(CCCCCN2CCC(Cc3ccccc3)CC2)cc1 [Compound 117, N-(5-phenylpentyl)-4-benzylpiperidine] | 0.58
c1ccc(CCCCN2CCN(Cc3ccccc3)CC2)cc1 [Compound 79, N-(4-phenylbutyl)-N'-benzylpiperazine] | 0.17
CCOc1ccc(CC(C)NCCCc2ccccc2)cc1 (racemic) [Compound 83, N-(3-phenylpropyl)-1-(p-ethoxyphenyl)-2-propylamine] | 3.38

same assay, conditions: Table 10; sigma-1/sigma-2

Compound | S1/S2 Ratio
c1ccc(CCCCCNCc2ccccc2)cc1 [Compound 77, N-(5-phenylpentyl)benzylamine] | 0.009
c1ccc(CCCCNCCc2ccccc2)cc1 [Compound 71, N-(4-phenylbutyl)phenethylamine] | 0.022
c1ccc(CCCCCN2CCC(Cc3ccccc3)CC2)cc1 [Compound 117, N-(5-phenylpentyl)-4-benzylpiperidine] | 0.210
c1ccc(CCCCN2CCN(Cc3ccccc3)CC2)cc1 [Compound 79, N-(4-phenylbutyl)-N'-benzylpiperazine] | 0.024
CCOc1ccc(CC(C)NCCCc2ccccc2)cc1 (racemic) [Compound 83, N-(3-phenylpropyl)-1-(p-ethoxyphenyl)-2-propylamine] | 0.101

same assay, conditions: Table 12; read-out: IC50 (nM) at sigma-1

Compound | IC50 [nM]
CCOc1ccc(CC(C)NCCCc2ccccc2)cc1 (racemic) [Compound 83, N-(3-phenylpropyl)-1-(p-ethoxyphenyl)-2-propylamine] | 3.4

same assay, conditions: Table 15; read-out: IC50 (nM) at sigma-1

Compound | IC50 [nM]
c1ccc(CCCCCNCc2ccccc2)cc1 [Compound 77, N-(5-phenylpentyl)benzylamine] | 0.32

same assay, conditions: guinea pig, microsomes

Compound | S1/S2 Ratio
c1ccc(CCCCCNCCCCc2ccccc2)cc1 [Compound 76, N-(5-phenylpentyl)-(4-phenyl)butylamine] | 0.007

same assay, conditions: less than about 0.1; see Table 10

Compound | IC50 ratio of sigma-1/sigma-2 (sigma-1 selective compounds)
c1ccc(CCCCCNCc2ccccc2)cc1 [Compound 77, N-(5-phenylpentyl)benzylamine] | less than 0.1
c1ccc(CCCCNCCc2ccccc2)cc1 [Compound 71, N-(4-phenylbutyl)phenethylamine] | less than 0.1
c1ccc(CCCCN2CCN(Cc3ccccc3)CC2)cc1 [Compound 79, N-(4-phenylbutyl)-N'-benzylpiperazine] | less than 0.1
CCOc1ccc(CC(C)NCCCc2ccccc2)cc1 (racemic) [Compound 83, N-(3-phenylpropyl)-1-(p-ethoxyphenyl)-2-propylamine] | less than 0.1

same assay, conditions: read-out: SIGMA-1 KI vs. 3H-P[…]

Compound | Ki [nM]
CCCN(C)CCCCCc1ccccc1 [Compound 112, N-methyl-N-propyl-5-phenylpentylamine] | 0.29

molecular target: T2, sigma-2 binding site (Cavia porcellus, UniProt H0V073); assay: biochemical; parameters: species or system guinea pig; details: Example 9; read-out: sigma-2 IC50
T2 construct: Guinea pig whole membrane preparations (P2 microsomal fraction); from tissue; host or cells: guinea pig membranes (P2 microsomal fraction), as described by Weber et al; brain inferred from the sister test b489
T2 sequence (H0V073 1-176): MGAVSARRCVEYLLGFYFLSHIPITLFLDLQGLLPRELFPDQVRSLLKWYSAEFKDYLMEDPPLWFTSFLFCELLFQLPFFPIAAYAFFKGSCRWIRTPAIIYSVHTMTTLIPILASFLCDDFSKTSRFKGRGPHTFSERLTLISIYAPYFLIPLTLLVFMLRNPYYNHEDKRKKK
Method: For the standard equilibrium assay, the mixtures were incubated for 30 min. at room temperature, then filtered and the radioactivity determined as described above.

Compound | IC50 [nM]
CCCN(C)CCCCCc1ccccc1 [Compound 112, N-methyl-N-propyl-5-phenylpentylamine] | 40
c1ccc(CCCCNCCc2ccccc2)cc1 [Compound 71, N-(4-phenylbutyl)phenethylamine] | 120

same assay, conditions: Table 10; read-out: SIGMA-2 KI vs. 3H-DTG + PENTAZOCINE MEAN

Compound | Ki [nM]
C[C@@H](Cc1ccccc1)NCCCc1ccccc1 [Compound 43, N-(3-phenylpropyl)-1-pheny1-2-propylamine] | 37.5
CC(Cc1ccc2ccccc2c1)NCCCc1ccccc1 (racemic) [Compound 17, (±) N-[1-(2'-Naphthyl)-2-propyl]-3-phenylpropylamine] | 222
c1ccc(CCCCCNCc2ccccc2)cc1 [Compound 77, N-(5-phenylpentyl)benzylamine] | 34.3
CCCN(C)CCCCCc1ccccc1 [Compound 112, N-methyl-N-propyl-5-phenylpentylamine] | 40.5
c1ccc(CCCCCNCCCCc2ccccc2)cc1 [Compound 76, N-(5-phenylpentyl)-(4-phenyl)butylamine] | 68
c1ccc(CCCCNCCc2ccccc2)cc1 [Compound 71, N-(4-phenylbutyl)phenethylamine] | 119
c1ccc(CCCCCN2CCC(Cc3ccccc3)CC2)cc1 [Compound 117, N-(5-phenylpentyl)-4-benzylpiperidine] | 2.78
c1ccc(CCCCN2CCN(Cc3ccccc3)CC2)cc1 [Compound 79, N-(4-phenylbutyl)-N'-benzylpiperazine] | 6.99
CCOc1ccc(CC(C)NCCCc2ccccc2)cc1 (racemic) [Compound 83, N-(3-phenylpropyl)-1-(p-ethoxyphenyl)-2-propylamine] | 33.5

same assay, conditions: Table 17; read-out: IC50 (nM) at sigma-2

Compound | IC50 [nM]
CCOc1ccc(CC(C)NCCCc2ccccc2)cc1 (racemic) [Compound 83, N-(3-phenylpropyl)-1-(p-ethoxyphenyl)-2-propylamine] | 34

same assay, conditions: Table 18; read-out: IC50 (nM) at sigma-2

Compound | IC50 [nM]
c1ccc(CCCCCNCc2ccccc2)cc1 [Compound 77, N-(5-phenylpentyl)benzylamine] | 34
c1ccc(CCCCCNCCCCc2ccccc2)cc1 [Compound 76, N-(5-phenylpentyl)-(4-phenyl)butylamine] | 48

molecular target: T3, 5-HT1A receptor (Rattus norvegicus, UniProt P19327); assay: biochemical; type: binding; parameters: 47: 529-540 (1986); from tissue; host or cells: brain tissue, inferred from the cited method (rat frontal cortex); details: S(+) isomer of cmp. #1
T3 sequence (P19327 1-422): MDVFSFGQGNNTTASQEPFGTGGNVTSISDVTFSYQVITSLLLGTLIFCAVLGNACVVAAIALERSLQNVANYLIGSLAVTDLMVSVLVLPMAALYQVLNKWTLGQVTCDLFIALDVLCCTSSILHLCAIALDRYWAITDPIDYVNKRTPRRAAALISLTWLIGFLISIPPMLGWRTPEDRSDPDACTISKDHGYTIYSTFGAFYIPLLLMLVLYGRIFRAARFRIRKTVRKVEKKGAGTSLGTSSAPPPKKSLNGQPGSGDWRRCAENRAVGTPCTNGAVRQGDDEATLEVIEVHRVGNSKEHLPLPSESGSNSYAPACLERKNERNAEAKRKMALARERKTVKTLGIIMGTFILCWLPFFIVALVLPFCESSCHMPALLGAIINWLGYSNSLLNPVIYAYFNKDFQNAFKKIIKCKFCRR
Method: Further sigma receptor binding assays against [^3 H]DTG and 5HT-1A binding assays were conducted according to the procedure outlined in the previous examples.

Compound | 5-HT1A affinity relative to antipode
C[C@@H](Cc1ccccc1)NCCCc1ccccc1 [Compound 43, N-(3-phenylpropyl)-1-pheny1-2-propylamine] | only one-tenth the affinity of its antipode

same assay, conditions: Table 5

Compound | Ratio 5-HT1A /σ
C[C@@H](Cc1ccccc1)NCCc1ccccc1 [Compound 27] | 200
C[C@H](N[C@@H](C)Cc1ccccc1)c1ccccc1 [Compound 26] | 3.5
FC(F)(F)c1cccc(N2CCN(CCCCc3ccccc3)CC2)c1 [Compound 47] | 1.6
C[C@@H](Cc1ccccc1)NCCCc1ccc2ccccc2c1 [Compound 42] | 110
Clc1cccc(N2CCN(CCCc3ccccc3)CC2)c1 [Compound 33] | 2.6
C[C@H](Cc1ccccc1)NCCC(=O)c1ccccc1 [Compound 9] | 2
c1ccc(CCCN2CCN(c3ccccc3)CC2)cc1 [Compound 46] | 3
c1ccc(CCCN2CCN(c3ccc4ccccc4c3)CC2)cc1 [Compound 50] | 94
C[C@H](Cc1ccccc1)NCCOc1ccccc1 [Compound 8] | .92

same assay, conditions: Table 5; read-out: 5-HT1A IC50

Compound | IC50 [nM]
C[C@@H](Cc1ccccc1)NCCc1ccccc1 [Compound 27] | 6510
C[C@H](N[C@@H](C)Cc1ccccc1)c1ccccc1 [Compound 26] | 10000
FC(F)(F)c1cccc(N2CCN(CCCCc3ccccc3)CC2)c1 [Compound 47] | 9.23
C[C@@H](Cc1ccccc1)NCCCc1ccccc1 [Compound 43, N-(3-phenylpropyl)-1-pheny1-2-propylamine] | 1110
C[C@@H](Cc1ccccc1)NCCCc1ccc2ccccc2c1 [Compound 42] | 572
Clc1cccc(N2CCN(CCCc3ccccc3)CC2)c1 [Compound 33] | 51.6
CC(Cc1ccc2ccccc2c1)NCCCc1ccccc1 (racemic) [Compound 17, (±) N-[1-(2'-Naphthyl)-2-propyl]-3-phenylpropylamine] | 87.8
C[C@H](Cc1ccccc1)NCCC(=O)c1ccccc1 [Compound 9] | 122
c1ccc(CCCN2CCN(c3ccccc3)CC2)cc1 [Compound 46] | 21.5
c1ccc(CCCN2CCN(c3ccc4ccccc4c3)CC2)cc1 [Compound 50] | 282
C[C@H](Cc1ccccc1)NCCOc1ccccc1 [Compound 8] | 43.6

same assay, conditions: Table 6; read-out: 5HT-1A (nM) MEAN

Compound | IC50 [nM]
c1ccc(CCCCCNCc2ccccc2)cc1 [Compound 77, N-(5-phenylpentyl)benzylamine] | 759
CCCN(C)CCCCCc1ccccc1 [Compound 112, N-methyl-N-propyl-5-phenylpentylamine] | 8240
c1ccc(CCCCCNCCCCc2ccccc2)cc1 [Compound 76, N-(5-phenylpentyl)-(4-phenyl)butylamine] | 119
c1ccc(CCCCNCCc2ccccc2)cc1 [Compound 71, N-(4-phenylbutyl)phenethylamine] | 225
c1ccc(CCCCCN2CCC(Cc3ccccc3)CC2)cc1 [Compound 117, N-(5-phenylpentyl)-4-benzylpiperidine] | 781
c1ccc(CCCCN2CCN(Cc3ccccc3)CC2)cc1 [Compound 79, N-(4-phenylbutyl)-N'-benzylpiperazine] | 173
CCOc1ccc(CC(C)NCCCc2ccccc2)cc1 (racemic) [Compound 83, N-(3-phenylpropyl)-1-(p-ethoxyphenyl)-2-propylamine] | 77.7
